Reference: patent US10988523B2, “Modified lipidated Relaxin B chain peptides and their therapeutic use” (Sanofi, priority 2018, dated 2021)
*1 amine or outer side, *2 acyl side, *3 side chain or, on linkers, in order; H or OH if unused. Where a SMILES comes first, the peptide text is derived from it. Side-chain parts run from the residue outwards. [ ]: non-standard residue; d: D form. The star is where a group is joined. X13 = CCCCCCCCCCCCCCCC(=O)N[C@@H](CCC(=O)N[C@@H](CCC(=O)N[C@@H](CCC(=O)NCCCC[C@H](NC(=O)COCC(=O)NCCCOCCOCCOCCCN*)C(N)=O)C(=O)O)C(=O)O)C(=O)O; PEG12 = NCCOCCOCCOCCOCCOCCOCCOCCOCCOCCOCCOCCOCCC(=O)O; γGlu = O=C(O)[C@H](CCC(=O)[*:2])N[*:1]; Stearoyl = CCCCCCCCCCCCCCCCCC(=O)*; Palmitoyl = CCCCCCCCCCCCCCCC(=O)*; αMeK = C[C@](N)(CCCCN)C(=O)O; αMeS = C[C@](N)(CO)C(=O)O; Nle = CCCC[C@H](N)C(=O)O; AEEA = NCCOCCOCC(=O)O; Aib = CC(C)(N)C(=O)O

Target: T1, RXFP1 (Homo sapiens, UniProt Q9HBX9)
T1 construct: OVCAR5 cells expressing endogenous RXFP1; endogenous in cells; host or cells: OVCAR5 cells
T1 sequence (Q9HBX9 1-757): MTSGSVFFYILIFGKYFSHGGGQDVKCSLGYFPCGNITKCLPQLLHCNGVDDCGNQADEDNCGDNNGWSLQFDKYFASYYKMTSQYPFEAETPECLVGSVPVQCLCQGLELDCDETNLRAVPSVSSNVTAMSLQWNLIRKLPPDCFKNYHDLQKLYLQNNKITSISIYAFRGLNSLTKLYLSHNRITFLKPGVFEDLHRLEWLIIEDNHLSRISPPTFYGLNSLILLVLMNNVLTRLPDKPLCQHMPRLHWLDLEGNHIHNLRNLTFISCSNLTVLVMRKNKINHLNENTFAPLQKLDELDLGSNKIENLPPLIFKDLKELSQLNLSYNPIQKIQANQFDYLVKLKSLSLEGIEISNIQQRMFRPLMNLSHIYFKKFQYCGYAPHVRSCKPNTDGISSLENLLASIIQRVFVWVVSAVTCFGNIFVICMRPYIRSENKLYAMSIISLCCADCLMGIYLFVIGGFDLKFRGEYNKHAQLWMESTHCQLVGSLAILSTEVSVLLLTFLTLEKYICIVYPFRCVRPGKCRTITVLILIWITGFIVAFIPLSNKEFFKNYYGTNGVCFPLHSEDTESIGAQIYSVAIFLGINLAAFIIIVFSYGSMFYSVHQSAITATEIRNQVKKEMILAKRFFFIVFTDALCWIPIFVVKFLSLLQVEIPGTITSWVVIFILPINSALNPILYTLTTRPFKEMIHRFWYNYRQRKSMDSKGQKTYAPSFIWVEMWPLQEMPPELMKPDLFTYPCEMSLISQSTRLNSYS
Assay: OVCAR5 cAMP assay (HTRF), RXFP1 agonist activity
Format: cell-based
Details: for EC50: OVCAR5 cells, cAMP HTRF, read-out: EC50 (nM), OVCAR 5 cells (cAMP); for Emax: OVCAR-5, maximal cAMP relative to H2-relaxin maximum (100%), read-out: EMax, OVCAR 5 cells (cAMP)
Excerpt: OVCAR5 cells expressing endogenous RXFP1 were used to test RXP1 agonist properties of peptides of the invention, and in particular of the peptides of sequence SEQ ID NO: 1-193.
Since RXFP1 is a Gs coupled GPCR, cAMP was used as readout of RXFP1 activation.
Isobutyl Methyl Xanthine (IBMX) was used to inhibit phosphodiesterase activity facilitating cAMP measurements. HTRF (Homogenous Time Resolved Fluorescence) technology was used to detect cAMP due to its great sensitivity.
In summary, OVCAR5 were grown in regular medium (RPMI) containing 10% fetal calf serum (FCS) and 1% antibiotics (penicillin/streptomycin).
Before the experiments, cells were detached with accutase and incubated for 40 minutes at 37° C. with 1 mM (3-isobutyl-1-methylxanthine) IBMX.
Cells were then distributed in 384 black well plates containing increasing concentrations of the different peptides in a fix volume of medium (without FCS).
After an incubation of 30 min at 37° C. in an humid incubator in 5% CO2, the reaction was stopped by adding a fixed volume of a solution containing a lysis buffer and cAMP-D2 (cAMP labeled with the dye d2) and the anti cAMP antibody linked to Europium and used for cAMP detection.
Readout of the experiment were performed on a fluorimeter allowing HTRF measurement. Activation curves were generated by plotting the intracellular value of cAMP versus log 10 of the compound concentration.
The 50% activation concentration (EC50) was calculated by nonlinear regression using the sigmoidal dose-response (variable slope) equation with Prism 5 software.
Emax % is determined as the maximal intracellular value of cAMP for test compound (upper limit of cAMP vs concentration curve) divided by the maximal intracellular value of cAMP for H2-relaxin determined in the same test occasion multiplied by 100. Emax %=100×[cAMPtest cpd]/[cAMPH2-RlX]

SMILES	EC50	Emax
CCCCCCCCCCCCCCCCCC(=O)N[C@@H](CCC(=O)N[C@@H](CCC(=O)N[C@@H](CCC(=O)NCCCC[C@H](NC(=O)CCOCCOCCOCCOCCOCCOCCOCCOCCOCCOCCOCCOCCNC(=O)[C@H](CCCCNC(C)=O)NC(=O)[C@H](CCCCN)NC(=O)[C@H](CCCNC(=N)N)NC(=O)C(C)(C)NC(=O)[C@](C)(CO)NC(=O)[C@H](Cc1c[nH]c2ccccc12)NC(=O)[C@@H](NC(=O)[C@H](CO)NC(=O)[C@H](CCCC)NC(=O)CNC(=O)[C@H](CCC(=O)O)NC(=O)C(C)(C)NC(=O)C(C)(C)NC(=O)[C@@H](NC(=O)[C@H](CCCCNC(C)=O)NC(=O)[C@H](C)NC(=O)[C@H](CCCNC(=N)N)NC(=O)[C@@H](NC(=O)[C@H](CCCCN)NC(=O)[C@H](CCC(=O)O)NC(=O)[C@H](CCCNC(=N)N)NC(=O)CNC(=O)[C@H](CCC(=O)O)NC(=O)[C@H](CC(C)C)NC(C)=O)C(C)C)[C@@H](C)CC)[C@@H](C)O)C(N)=O)C(=O)O)C(=O)O)C(=O)O [compound 41] (Ac-LEGREKVRAK(Ac)I[Aib][Aib]EG[Nle]STW[αMeS][Aib]RKK(Ac)[PEG12]K([γGlu-γGlu-γGlu-Stearoyl])-NH2)	0.09 nM	87%
CCCCCCCCCCCCCCCC(=O)N[C@@H](CCC(=O)N[C@@H](CCC(=O)N[C@@H](CCC(=O)NCCCC[C@H](NC(=O)COCC(=O)NCCCOCCOCCOCCCNC(=O)[C@H](CCCCNC(C)=O)NC(=O)[C@H](CCCCN)NC(=O)[C@H](CCCNC(=N)N)NC(=O)C(C)(C)NC(=O)[C@H](CO)NC(=O)[C@H](Cc1c[nH]c2ccccc12)NC(=O)[C@@H](NC(=O)[C@H](CO)NC(=O)[C@H](CCCC)NC(=O)CNC(=O)[C@H](CCC(=O)O)NC(=O)C(C)(C)NC(=O)C(C)(C)NC(=O)[C@@H](NC(=O)[C@H](CCCCNC(C)=O)NC(=O)[C@H](C)NC(=O)[C@H](CCCNC(=N)N)NC(=O)[C@@H](NC(=O)[C@H](CCCCN)NC(=O)[C@H](CCC(=O)O)NC(=O)[C@H](CCCNC(=N)N)NC(=O)CNC(=O)[C@H](CCC(=O)O)NC(=O)[C@H](CC(C)C)NC(C)=O)C(C)C)[C@@H](C)CC)[C@@H](C)O)C(N)=O)C(=O)O)C(=O)O)C(=O)O [compound 175] (Ac-LEGREKVRAK(Ac)I[Aib][Aib]EG[Nle]STWS[Aib]RKK(Ac)-X13)		87%
CCCCCCCCCCCCCCCC(=O)N[C@@H](CCC(=O)N[C@@H](CCC(=O)NCCCC[C@H](NC(=O)CC[C@H](NC(=O)CC[C@H](NC(=O)COCCOCCNC(=O)COCCOCCNC(=O)COCCOCCNC(=O)COCCOCCNC(=O)[C@H](CCCCNC(C)=O)NC(=O)[C@H](C)NC(=O)[C@H](CCCNC(=N)N)NC(=O)[C@](C)(CCCCN)NC(=O)[C@H](CO)NC(=O)[C@H](Cc1ccccc1)NC(=O)[C@@H](NC(=O)[C@H](CO)NC(=O)[C@H](CCC(N)=O)NC(=O)CNC(=O)[C@H](CCC(=O)O)NC(=O)C(C)(C)NC(=O)C(C)(C)NC(=O)[C@@H](NC(=O)[C@H](CCCCNC(C)=O)NC(=O)[C@H](C)NC(=O)[C@H](CCCNC(=N)N)NC(=O)[C@@H](NC(=O)[C@H](CCCCN)NC(=O)[C@H](CCC(=O)O)NC(=O)[C@H](CCCNC(=N)N)NC(=O)CNC(=O)[C@H](CCC(=O)O)NC(=O)[C@H](CC(C)C)NC(C)=O)C(C)C)[C@@H](C)CC)[C@@H](C)O)C(=O)O)C(=O)O)C(N)=O)C(=O)O)C(=O)O [compound 185] (Ac-LEGREKVRAK(Ac)I[Aib][Aib]EGQSTFS[αMeK]RAK(Ac)[AEEA][AEEA][AEEA][AEEA][γGlu][γGlu]K([γGlu-γGlu-Palmitoyl])-NH2)	0.05 nM	100%
CCCCCCCCCCCCCCCC(=O)NCCCC[C@H](NC(=O)[C@H](CCCCN)NC(=O)[C@H](CCCNC(=N)N)NC(=O)C(C)(C)NC(=O)[C@H](CO)NC(=O)[C@H](Cc1c[nH]c2ccccc12)NC(=O)[C@@H](NC(=O)[C@H](CO)NC(=O)[C@H](CCCC)NC(=O)CNC(=O)[C@H](CCC(=O)O)NC(=O)C(C)(C)NC(=O)C(C)(C)NC(=O)[C@@H](NC(=O)[C@H](C)NC(=O)[C@H](C)NC(=O)[C@H](CCCNC(=N)N)NC(=O)[C@@H](NC(=O)[C@H](CCCCN)NC(=O)[C@H](CCC(=O)O)NC(=O)[C@H](CCCNC(=N)N)NC(=O)CNC(=O)[C@H](CCC(=O)O)NC(=O)[C@H](CC(C)C)NC(C)=O)C(C)C)[C@@H](C)CC)[C@@H](C)O)C(N)=O [compound 1] (Ac-LEGREKVRAAI[Aib][Aib]EG[Nle]STWS[Aib]RKK(Palmitoyl)-NH2)		85%
CCCCCCCCCCCCCCCC(=O)N[C@@H](CCC(=O)N[C@@H](CCC(=O)NCCOCCOCC(=O)NCCOCCOCC(=O)NCCCC[C@H](NC(=O)[C@H](CCCCN)NC(=O)[C@H](CCCNC(=N)N)NC(=O)C(C)(C)NC(=O)[C@H](CO)NC(=O)[C@H](Cc1c[nH]c2ccccc12)NC(=O)[C@@H](NC(=O)[C@H](CO)NC(=O)[C@H](CCCC)NC(=O)CNC(=O)[C@H](CCC(=O)O)NC(=O)C(C)(C)NC(=O)C(C)(C)NC(=O)[C@@H](NC(=O)[C@H](C)NC(=O)[C@H](C)NC(=O)[C@H](CCCNC(=N)N)NC(=O)[C@@H](NC(=O)[C@H](CCCCN)NC(=O)[C@H](CCC(=O)O)NC(=O)[C@H](CCCNC(=N)N)NC(=O)CNC(=O)[C@H](CCC(=O)O)NC(=O)[C@H](CC(C)C)NC(=O)[C@H](CCC(=O)O)NC(C)=O)C(C)C)[C@@H](C)CC)[C@@H](C)O)C(N)=O)C(=O)O)C(=O)O [compound 57] (Ac-ELEGREKVRAAI[Aib][Aib]EG[Nle]STWS[Aib]RKK([AEEA-AEEA-γGlu-γGlu-Palmitoyl])-NH2)	4.4 nM	93%
CCCCCCCCCCCCCCCCCC(=O)N[C@@H](CCC(=O)N[C@@H](CCC(=O)N[C@@H](CCC(=O)NCCOCCOCC(=O)NCCOCCOCC(=O)NCCOCCOCC(=O)NCCCC[C@H](NC(=O)[C@H](CCCCNC(C)=O)NC(=O)[C@H](CCCCN)NC(=O)[C@H](CCCNC(=N)N)NC(=O)C(C)(C)NC(=O)[C@H](CO)NC(=O)[C@H](Cc1ccc(O)cc1)NC(=O)[C@@H](NC(=O)[C@H](CO)NC(=O)[C@H](CCCC)NC(=O)CNC(=O)[C@H](CCC(=O)O)NC(=O)C(C)(C)NC(=O)C(C)(C)NC(=O)[C@@H](NC(=O)[C@H](CCCCNC(C)=O)NC(=O)[C@H](C)NC(=O)[C@H](CCCNC(=N)N)NC(=O)[C@@H](NC(=O)[C@H](CCCCN)NC(=O)[C@H](CCC(=O)O)NC(=O)[C@H](CCCNC(=N)N)NC(=O)CNC(=O)[C@H](CCC(=O)O)NC(=O)[C@H](CC(C)C)NC(C)=O)C(C)C)[C@@H](C)CC)[C@@H](C)O)C(N)=O)C(=O)O)C(=O)O)C(=O)O [compound 78] (Ac-LEGREKVRAK(Ac)I[Aib][Aib]EG[Nle]STYS[Aib]RKK(Ac)K([AEEA-AEEA-AEEA-γGlu-γGlu-γGlu-Stearoyl])-NH2)	1.04 nM	73%
CCCCCCCCCCCCCCCC(=O)N[C@@H](CCC(=O)N[C@@H](CCC(=O)N[C@@H](CCC(=O)NCCOCCOCC(=O)NCCOCCOCC(=O)NCCCC[C@H](NC(=O)[C@H](CCCCN)NC(=O)[C@H](CCCCN)NC(=O)[C@H](CCCNC(=N)N)NC(=O)C(C)(C)NC(=O)[C@H](CO)NC(=O)[C@H](Cc1c[nH]c2ccccc12)NC(=O)[C@@H](NC(=O)[C@H](CO)NC(=O)[C@H](CCCCNC(C)=O)NC(=O)CNC(=O)[C@H](CCC(=O)O)NC(=O)C(C)(C)NC(=O)C(C)(C)NC(=O)[C@@H](NC(=O)[C@H](CCCCNC(C)=O)NC(=O)[C@H](C)NC(=O)[C@H](CCCNC(=N)N)NC(=O)[C@@H](NC(=O)[C@H](CCCCN)NC(=O)[C@H](CCC(=O)O)NC(=O)[C@H](CCCNC(=N)N)NC(=O)CNC(=O)[C@H](CCC(=O)O)NC(=O)[C@H](CC(C)C)NC(C)=O)C(C)C)[C@@H](C)CC)[C@@H](C)O)C(N)=O)C(=O)O)C(=O)O)C(=O)O [compound 61] (Ac-LEGREKVRAK(Ac)I[Aib][Aib]EGK(Ac)STWS[Aib]RKKK([AEEA-AEEA-γGlu-γGlu-γGlu-Palmitoyl])-NH2)	0.17 nM	93%
